Measured values taken from PubChem BioAssay (NCI).
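Growth conditions: 96-well plates. Treatment: test compound, 48 hours, 5 concentrations. Analysis: linear interpolation between bracketing concentrations; unreached endpoints set to highest concentration. Here, GI50 denotes the concentration required for 50% inhibition of growth. TGI: concentration producing complete growth inhibition.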

Legend:
Test in all cases: growth of human tumour cells (NCI), 48 h
DU-145 prostate = system: DU-145 prostate
MOLT-4 leukemia = system: MOLT-4 leukemia
HCT-116 colon = system: HCT-116 colon
HOP-62 NSCLC = system: HOP-62 NSCLC
NCI-H460 lung = system: NCI-H460 lung
UO-31 renal = system: UO-31 renal
TK-10 renal = system: TK-10 renal
A549 NSCLC = system: A549 NSCLC
T-47D breast = system: T-47D breast
HOP-92 NSCLC = system: HOP-92 NSCLC
HCC-2998 colon = system: HCC-2998 colon
M14 melanoma = system: M14 melanoma
NCI/ADR-RES ovarian = system: NCI/ADR-RES ovarian
SK-MEL-5 melanoma = system: SK-MEL-5 melanoma
RXF 393 renal = system: RXF 393 renal
UACC-257 melanoma = system: UACC-257 melanoma
OVCAR-4 ovarian = system: OVCAR-4 ovarian
HT29 colon = system: HT29 colon
KM12 colon = system: KM12 colon
SNB-75 CNS = system: SNB-75 CNS
SF-539 CNS = system: SF-539 CNS
SF-295 CNS = system: SF-295 CNS
NCI-H522 lung = system: NCI-H522 lung
SF-268 CNS = system: SF-268 CNS
SK-MEL-2 melanoma = system: SK-MEL-2 melanoma
OVCAR-8 ovarian = system: OVCAR-8 ovarian
EKVX NSCLC = system: EKVX NSCLC
IGROV1 ovarian = system: IGROV1 ovarian
MCF7 breast = system: MCF7 breast
CCRF-CEM leukemia = system: CCRF-CEM leukemia
SK-MEL-28 melanoma = system: SK-MEL-28 melanoma
PC-3 prostate = system: PC-3 prostate
COLO 205 colon = system: COLO 205 colon
U251 CNS = system: U251 CNS
SW-620 colon = system: SW-620 colon
RPMI-8226 leukemia = system: RPMI-8226 leukemia
786-0 renal = system: 786-0 renal
LOX IMVI melanoma = system: LOX IMVI melanoma
HL-60(TB) leukemia = system: HL-60(TB) leukemia
OVCAR-5 ovarian = system: OVCAR-5 ovarian
CAKI-1 renal = system: CAKI-1 renal
ACHN renal = system: ACHN renal
BT-549 breast = system: BT-549 breast
MALME-3M melanoma = system: MALME-3M melanoma
HS 578T breast = system: HS 578T breast
A498 renal = system: A498 renal
SNB-19 CNS = system: SNB-19 CNS
NCI-H226 lung = system: NCI-H226 lung
MDA-MB-231 breast = system: MDA-MB-231 breast
UACC-62 melanoma = system: UACC-62 melanoma
OVCAR-3 ovarian = system: OVCAR-3 ovarian
HCT-15 colon = system: HCT-15 colon
K-562 leukemia = system: K-562 leukemia
SK-OV-3 ovarian = system: SK-OV-3 ovarian
MDA-MB-435 = system: MDA-MB-435
SN12C renal = system: SN12C renal
NCI-H23 lung = system: NCI-H23 lung

Cc1ccc(NC2=CC(=O)C(=O)c3ccccc32)c(C)c1
GI50 (DU-145 prostate): 1.58 µM
TGI (DU-145 prostate): 2.93 µM
GI50 (MOLT-4 leukemia): 2.88 µM
TGI (MOLT-4 leukemia): 16.6 µM
GI50 (HCT-116 colon): 1.66 µM
TGI (HCT-116 colon): 4.23 µM
GI50 (HOP-62 NSCLC): 3.24 µM
TGI (HOP-62 NSCLC): 12.5 µM
GI50 (NCI-H460 lung): 2.57 µM
TGI (NCI-H460 lung): 7.68 µM
GI50 (UO-31 renal): 2.19 µM
TGI (UO-31 renal): 14.5 µM
GI50 (TK-10 renal): 0.596 µM
TGI (TK-10 renal): 12.2 µM
GI50 (A549 NSCLC): 1.97 µM
TGI (A549 NSCLC): 4.34 µM
GI50 (T-47D breast): 3.96 µM
TGI (T-47D breast): 25.2 µM
GI50 (HOP-92 NSCLC): 13.3 µM
TGI (HOP-92 NSCLC): 42.3 µM
GI50 (HCC-2998 colon): 2.54 µM
TGI (HCC-2998 colon): 7.91 µM
GI50 (M14 melanoma): 1.78 µM
TGI (M14 melanoma): 3.26 µM
GI50 (NCI/ADR-RES ovarian): 2.92 µM
TGI (NCI/ADR-RES ovarian): 11.8 µM
GI50 (SK-MEL-5 melanoma): 1.44 µM
TGI (SK-MEL-5 melanoma): 2.79 µM
GI50 (RXF 393 renal): 9.59 µM
TGI (RXF 393 renal): 21.6 µM
GI50 (UACC-257 melanoma): 1.96 µM
TGI (UACC-257 melanoma): 4.44 µM
GI50 (OVCAR-4 ovarian): 2.53 µM
TGI (OVCAR-4 ovarian): 12.2 µM
GI50 (HT29 colon): 2.51 µM
TGI (HT29 colon): 7.08 µM
GI50 (KM12 colon): 2.82 µM
TGI (KM12 colon): 13.1 µM
GI50 (SNB-75 CNS): 1.57 µM
TGI (SNB-75 CNS): 3.49 µM
GI50 (SF-539 CNS): 3.63 µM
TGI (SF-539 CNS): 13.2 µM
GI50 (SF-295 CNS): 1.68 µM
TGI (SF-295 CNS): 3.37 µM
GI50 (NCI-H522 lung): 1.52 µM
TGI (NCI-H522 lung): 5.87 µM
GI50 (SF-268 CNS): 3.75 µM
TGI (SF-268 CNS): 16.2 µM
GI50 (SK-MEL-2 melanoma): 2.29 µM
TGI (SK-MEL-2 melanoma): 6.4 µM
GI50 (OVCAR-8 ovarian): 3.32 µM
TGI (OVCAR-8 ovarian): 17 µM
GI50 (EKVX NSCLC): 10.3 µM
TGI (EKVX NSCLC): 24.3 µM
GI50 (IGROV1 ovarian): 1.88 µM
TGI (IGROV1 ovarian): 6.68 µM
GI50 (MCF7 breast): 0.905 µM
TGI (MCF7 breast): 4.77 µM
GI50 (CCRF-CEM leukemia): 6.23 µM
TGI (CCRF-CEM leukemia): > 100 µM
GI50 (SK-MEL-28 melanoma): 3.54 µM
TGI (SK-MEL-28 melanoma): 13.5 µM
GI50 (PC-3 prostate): 3.37 µM
TGI (PC-3 prostate): 17.1 µM
GI50 (COLO 205 colon): 3.06 µM
TGI (COLO 205 colon): 11.6 µM
GI50 (U251 CNS): 3.07 µM
TGI (U251 CNS): 11.9 µM
GI50 (SW-620 colon): 3.26 µM
TGI (SW-620 colon): 12.8 µM
GI50 (RPMI-8226 leukemia): 4.84 µM
TGI (RPMI-8226 leukemia): 53.7 µM
GI50 (786-0 renal): 8.44 µM
TGI (786-0 renal): 20.8 µM
GI50 (LOX IMVI melanoma): 1.28 µM
TGI (LOX IMVI melanoma): 4.46 µM
GI50 (HL-60(TB) leukemia): 2.59 µM
TGI (HL-60(TB) leukemia): 8.06 µM
GI50 (OVCAR-5 ovarian): 6.66 µM
TGI (OVCAR-5 ovarian): 21.6 µM
GI50 (CAKI-1 renal): 2 µM
TGI (CAKI-1 renal): 7.95 µM
GI50 (ACHN renal): 3.71 µM
TGI (ACHN renal): 13.9 µM
GI50 (BT-549 breast): 2.17 µM
TGI (BT-549 breast): 7.2 µM
GI50 (MALME-3M melanoma): 1.76 µM
TGI (MALME-3M melanoma): 3.78 µM
GI50 (HS 578T breast): 2.35 µM
TGI (HS 578T breast): 7.99 µM
GI50 (A498 renal): 4.69 µM
TGI (A498 renal): 17.8 µM
GI50 (SNB-19 CNS): 3.88 µM
TGI (SNB-19 CNS): 15 µM
GI50 (NCI-H226 lung): 2.85 µM
TGI (NCI-H226 lung): 12.2 µM
GI50 (MDA-MB-231 breast): 3.03 µM
TGI (MDA-MB-231 breast): 19.4 µM
GI50 (UACC-62 melanoma): 1.78 µM
TGI (UACC-62 melanoma): 3.72 µM
GI50 (OVCAR-3 ovarian): 1.49 µM
TGI (OVCAR-3 ovarian): 4.47 µM
GI50 (HCT-15 colon): 2.74 µM
TGI (HCT-15 colon): 17.1 µM
GI50 (K-562 leukemia): 4.03 µM
TGI (K-562 leukemia): 29.4 µM
GI50 (SK-OV-3 ovarian): 13.8 µM
TGI (SK-OV-3 ovarian): 27.9 µM
GI50 (MDA-MB-435): 1.79 µM
TGI (MDA-MB-435): 3.48 µM
GI50 (SN12C renal): 2.81 µM
TGI (SN12C renal): 9.17 µM
GI50 (NCI-H23 lung): 1.78 µM
TGI (NCI-H23 lung): 4.51 µM
